Here are results for seven compounds from patent EP4775580A1, “COMPOUND, PHARMACEUTICAL COMPOSITION COMPRISING SAME, AND USE THEREOF” (Euregen Biopharma Co., Ltd., priority 2023, dated 2025).

One may read the IC50 as the concentration that gives 50% inhibition. The term AUC(0-t) denotes exposure summed from dosing to a finite time, without extrapolation to infinity. Broadly, the Cmax is the highest concentration seen after dosing.

Like-named read-outs stand apart in the source and are kept apart here.

In one series the test system is HL-60 cells. The series is described as follows: Antiproliferative activity, CellTiter-Glo, 7 days (Test Example 2), HL-60. The conditions noted are these: Homo sapiens, 168 h, HL-60 cells (no Menin-MLL fusion), 7 days incubation. It counts as cell-based. From the text: (§1) [0134] 1. Experimental Principle: MV-4-11, Molm-13, and OCI-AML-3 cells are human hematologic tumor cell lines harboring the Menin-MLL fusion. HL-60 is a wild-type human hematologic tumor cell line without Menin-MLL fusion. […] 2. Experimental Materials: MV-4-11, Molm-13, OCI-AML-3, and HL-60 cells were all purchased from Cobioer; CellTiter-Glo® was purchased from Promega (Cat. #G7571); RPMI-1640 was purchased from Viva Cell (Cat. #C3010-0500); IMDM was purchased from Viva Cell (Cat. #C3040-0500); fetal bovine serum (FBS) was purchased from Biosera (Cat. #FB-1058/500); penicillin-streptomycin was purchased from BasalMedia (Cat. #S110JV); 0.25% Trypsin-EDTA was purchased from BasalMedia (Cat. #S310KJ); dimethyl sulfoxide (DMSO) was purchased from Sinopharm (Cat. #30072418); 96-well plates were purchased from Corning (Cat. #3610); incubator was obtained from PHCbi (Model: MCO-18AC); inverted microscope was obtained from Mingmei (Cat. #MI52-0); automated cell counter was obtained from BodBoge (Model: JSY-SC-031N); microplate reader was obtained from PerkinElmer (Model: Envision); data processing software: GraphPad Prism 8.0. 3. Experimental Methods: Four cell lines in logarithmic growth phase were resuspended in their respective growth media (MV-4-11: IMDM + 20% FBS; Molm-13: RPMI-1640 + 20% FBS; OCI-AML-3: RPMI-1640 + 20% FBS; HL-60: RPMI-1640 + 10% FBS) and diluted to target densities (12,500, 6,250, 12,500, and 12,500/mL, respectively). The cell suspensions were seeded into 96-well plates at 80 µL per well and incubated overnight at 37°C in a 5% CO2 incubator. Culture medium served as the background control. Test compounds were dissolved in DMSO to prepare 10 mmol/L stock solutions. The stock solutions were first diluted to 2 mmol/L with DMSO, followed by 4-fold serial dilutions to generate 10 concentrations. From each concentration, 2 µL was diluted with 78 µL growth medium. […] After incubation at room temperature for 10 minutes, luminescence values were read using the EnVision microplate reader, and IC50 values were calculated using GraphPad Prism 8.0 software. […]
(In ATP-based viability assays light output follows the ATP content of the culture.)

Series [1] deals with MV-4-11 cells. The series is described as follows: Antiproliferative activity, CellTiter-Glo, 7 days (Test Example 2), MV-4-11. It counts as cell-based. Particulars: Homo sapiens, MV4-11, 168 h, 7 days incubation.
Source text: as §1

Series [2] has as its system MV-4-11 cells. Description: Antiproliferative activity against MV-4-11 cells (CTG method, 72 h). Particulars: Homo sapiens, MV4-11, 72 hours incubation, CellTiter-Glo. In kind it is cell-based. The text has this: • 1. Experimental Principle: MV-4-11 is a human leukemia cell line harboring MLL translocation and expressing the MLL fusion protein MLL-AF4. […] Experimental Materials: CellTiter-Glo was purchased from Promega (Cat. #G7571); IMDM medium was purchased from Gibco (Cat. #12440061); fetal bovine serum was purchased from Excell (Cat. #FND500); dimethyl sulfoxide (DMSO) was purchased from Sigma (Cat. #D2650); 384-well cell culture plates were purchased from Corning (Cat. #3756); automated cell counter was obtained from Life Technologies (Model: Countess II); microplate reader was obtained from PerkinElmer (Model: EnVision Multilabel Reader). • 3. Experimental Methods: Cells in logarithmic growth phase were resuspended in growth medium (IMDM + 10% FBS) and diluted to the target density (50,000/mL). The cell suspension was seeded into 384-well plates at 50 µL per well and incubated overnight at 37°C in a 5% CO2 incubator.
Test compounds were dissolved in DMSO to prepare 10 mM stock solutions. The stock solutions were first diluted to 2 mmol/L with DMSO, followed by 3-fold serial dilutions to generate 10 concentrations. From each concentration, 5.5 µL was diluted with 94.5 µL growth medium. The diluted solutions were then added to the 384-well plates containing seeded cells at 5 µL per well.
Cells treated with test compounds were incubated at 37°C in a 5% CO2 incubator for 72 hours. The 384-well plates were equilibrated at room temperature, and 15 µL of CellTiter-Glo reagent was added to each well. The plates were mixed on a vortex mixer for 2 minutes and incubated at room temperature for 60 minutes. Luminescence values were read using the EnVision Multilabel Reader, and IC50 values were calculated using GraphPad Prism 5.0 software.

Series [3] can be described thus: Pharmacokinetics in rats after single IV and PO administration (LC-MS/MS). In kind it is in vivo, male SD rats. Particulars: SD rats, comparative compounds; for PO F: PO 10 mg/kg vs IV 1 mg/kg according to Table 3; for AUC(0-t) / clearance / Cmax / Vd / half-life: male, rat, plasma; for clearance: read-out: IV CL; for Vd: read-out: IV Vss. Here is the method:
• 1. Objective: This study aimed to characterize the pharmacokinetic properties of selected compounds from the examples of the present invention in SD rats following single intravenous (IV) injection and oral (PO) administration using LC-MS/MS methodology. • 2. Experimental Materials: Test compounds were prepared according to the examples of the present invention; male SD rats were obtained from the Laboratory Animal Department of Shanghai Institute of Planned Parenthood Research (License No. SCXK(Shanghai)2018-0006) or Shanghai Jihui Laboratory Animal Breeding Co., Ltd. (License No. SCXK(Shanghai)2022-0009). • 3. Experimental Methods: Preparation of 0.5% methylcellulose: 5 g of methylcellulose was weighed and dissolved in 1000 mL of purified water. Preparation of 0.5% methylcellulose (pH = 5.03): 5 g of methylcellulose was weighed and dissolved in 1000 mL of purified water, and the pH was adjusted to 5.03 with 100 mM citric acid.
Preparation of oral formulations: The required amount of test compound was weighed and dissolved in 0.5% methylcellulose solution or 0.5% methylcellulose (pH = 5.03) to obtain a suspension or solution at 1 or 3 mg/mL.
Preparation of intravenous injection formulations: The required amount of test compound (EB229, EB300, EB341, EB342) was weighed and dissolved in 0.5 mL dimethyl sulfoxide to prepare a 4 mg/mL solution. To 0.25 mL of this solution, 0.5 mL of polyethylene glycol 15-hydroxystearate (Solutol) and 4.25 mL of normal saline were added to obtain a 0.2 mg/mL solution. For EB834, 6 mg was weighed and dissolved in 0.1 mL dimethyl sulfoxide, followed by addition of 0.2 mL polyethylene glycol 15-hydroxystearate (Solutol) and 1.7 mL normal saline to obtain a 3 mg/mL solution.
Dosing: Male SD rats were fasted overnight prior to oral (PO) administration; fasting was not required for the single intravenous (IV) injection group. Food was provided 4 hours post-dosing.
Sample Collection: Blood was collected from the jugular vein or other suitable veins, with 0.2 mL collected at each time point. Samples were placed in tubes containing dipotassium ethylenediaminetetraacetate and kept on ice prior to centrifugation. Within 1 hour of blood collection, samples were centrifuged at 6800 × g for 6 minutes at 2-8°C and stored at -80°C.

Where [4] appears, read: IV, dose 1 mg/kg according to Table 3, read-out: IV AUC(0-t).
[5] abbreviates: IV, dose 1 mg/kg according to Table 3.
[6] abbreviates: IV, dose 1 mg/kg according to Table 3, read-out: IV Cmax.
Where [7] appears, read: IV, dose 1 mg/kg according to Table 3, read-out: IV t1/2 (converted).
Where [8] appears, read: PO, dose 10 mg/kg in 0.5% MC according to Table 3, read-out: PO AUC(0-t).
[9] abbreviates: PO, dose 10 mg/kg in 0.5% MC according to Table 3, read-out: PO Cmax.
Where [10] appears, read: PO, dose 10 mg/kg in 0.5% MC according to Table 3, read-out: PO t1/2 (converted).

In the case of `CNc1nc(NC2CCN(Cc3ccc4c(cc(C#N)n4C[C@H](C)N4CCN(S(C)(=O)=O)CC4)c3C)CC2)c2cc(CC(F)(F)F)sc2n1` [KO539], the values for the IC50 in the series on HL-60 cells and with MV-4-11 cells [1] were 2.05 µM and 0.0144 µM, respectively.

In the series with MV-4-11 cells [2], `CCN(C(=O)c1cc(F)ccc1N1CCN(C2CCN(Cc3ccc4[nH]c(C#N)cc4c3C)C2)c2ncncc21)C(C)C` (stereo not shown) [Comparative Compound 2] returned an IC50 of 0.8 µM. This counts as sub-micromolar.

Take `CCN(C(=O)c1cc(F)ccc1N1CCN(C2CCN(Cc3ccc4c(cc(C#N)n4C[C@@H]4CCNC4)c3C)CC2)c2ncncc21)C(C)C` [Comparative Comp. 8]: the “PO F” value in series [3] was found to be 13.85%. The AUC(0-t) was determined as 85.7 ng·h/mL in series [3] (setting [4]) and 119 ng·h/mL in series [3] (setting [8]). For the same compound, in series [3] (setting [5]), the clearance was 185 mL/min/kg. The figures for the Cmax in series [3] (setting [6]) and in series [3] (setting [9]) were 271 ng/mL and 41.9 ng/mL, respectively. The Vd in series [3] (setting [5]) turned out to be 9.61 L/kg. The half-life in series [3] (setting [7]) was 2.06 h; in series [3] (setting [10]) it was 1.8 h.

On to `CCN(C(=O)c1cc(F)ccc1N1CCN(C2CCN(Cc3ccc4[nH]c(C#N)cc4c3C)CC2)c2ncncc21)C(C)C` [Comparative Comp. 7], for which, in series [3], the “PO F” value is given as 3.7%. For the same compound, the AUC(0-t) in series [3] (setting [4]) stood at 264 ng·h/mL; in series [3] (setting [8]) it was 119 ng·h/mL. For the same compound, the clearance in series [3] (setting [5]) came out at 62.1 mL/min/kg. Further, the Cmax in series [3] (setting [6]) is 152 ng/mL; in series [3] (setting [9]) it was 27 ng/mL. Moreover, the Vd in series [3] (setting [5]) is 6.62 L/kg. Moreover, the half-life in series [3] (setting [7]) is 1.55 h; in series [3] (setting [10]) it was 2.29 h.

Consider `CCN(C(=O)c1cc(F)ccc1N1CCN(C2CCN(C[C@H]3CC[C@H](NS(C)(=O)=O)CC3)C2)c2ncncc21)C(C)C` (stereo partly shown) [Comparative Compound 1], for which the IC50 in the series with MV-4-11 cells [2] is 0.293 µM.

For the compound `CCN(C(=O)c1cc(F)ccc1N1CCN(C2CCN(Cc3ccc4c(cc(C#N)n4CC4CNC4)c3C)CC2)c2ncncc21)C(C)C` [Comparative Comp. 9], the “PO F” value in series [3] came out at 13.50%. The AUC(0-t) in series [3] (setting [4]) is 169 ng·h/mL; in series [3] (setting [8]), 228 ng·h/mL. In addition, the clearance in series [3] (setting [5]) was 92.4 mL/min/kg. Moreover, the maximum concentration (Cmax) in series [3] (setting [6]) worked out at 376 ng/mL; in series [3] (setting [9]), 101 ng/mL. For the same compound, the Vd in series [3] (setting [5]) was determined as 30.6 L/kg. In addition, the half-life in series [3] (setting [7]) is 5.98 h; in series [3] (setting [10]), 5.12 h.

With `CCN(C(=O)c1cc(F)ccc1N1CCN(C2CCN(Cc3ccc4c(cc(C#N)n4CC4COC4)c3C)CC2)c2ncncc21)C(C)C` [Comparative Comp. 10], the “PO F” value in series [3] is 49.68%. Also, the AUC(0-t) was determined as 16.9 ng·h/mL in series [3] (setting [4]) and 83.8 ng·h/mL in series [3] (setting [8]). Besides, the clearance in series [3] (setting [5]) stood at 947 mL/min/kg. Moreover, the results for the Cmax in series [3] (setting [6]) and in series [3] (setting [9]) were 16.2 ng/mL and 33.3 ng/mL, respectively. The Vd in series [3] (setting [5]) worked out at 59.4 L/kg. Moreover, the half-life in series [3] (setting [7]) was 0.82 h; in series [3] (setting [10]) it was 1.26 h.
